Assay results from patent US10653651B2, “Kit for treating cancer with low molecular weight components of aurin tricarboxylic acid complex” (Aurin Biotech Inc., priority 2014, dated 2020).
Read-outs that look alike come from different tables or passages of the source.

Columns and labels:
BT 474 cells = assay: Lactic dehydrogenase release from BT 474 cells; format: cell-based, human; conditions: n=4, read-out: IC50, lactate dehydrogenase release from BT 474 cells
Experimental: (§1) Experiment 4 was designed to confirm apoptotic cell death of U251 cells induced by ATA, AQA, AHA, and ATAC by measuring release of lactic dehydrogenase into the cell medium. For serum lactate dehydrogenase determination, reaction supernatants ([…]) were pipetted into the wells of 96-well plates, followed by the addition of […] lactate solution (36 mg/mL in PBS) and […] INT (iodonitrotetrazolium chloride, 2-(4-iodophenyl)-3-(4-nitrophenyl)-5-phenyl-2H-tetrazolium chloride) solution (2 mg/mL in PBS). The enzymatic reaction was started by addition of […] of NAD^+/diaphorase solution (3 mg/mL NAD^+; 2.3 mg solid/mL diaphorase). After 1 h, optical densities were measured with a microplate reader using a 490 nm filter. The amount of LDH released was expressed as a percentage of the value obtained in comparative cells where cells were 100% lysed by 1% Triton X-100.
(§2) Experiment 14 was designed to determine if apoptotic cell death of BT 474 cells was induced by ATA, AQA, AHA, and ATAC as determined by the release of lactic dehydrogenase into the cell medium. The protocol was identical to that used in Experiment 5(d) except that BT 474 cells were used.

[1] = system: K562 human chronic myelogenous leukemia cells; assay: Lactic dehydrogenase release from K562 cells; format: cell-based; conditions: n=4, read-out: IC50, lactate dehydrogenase release from K562 cells
Experimental: as §1
as §2, with “18” for “14”, “K562 human chronic myelogenous leukemia” for “BT 474”, “16(b)” for “5(d)”

[2] = system: human bone osteosarcoma MNNG cells; assay: Lactic dehydrogenase release from MNNG cells; format: cell-based; conditions: n=4, read-out: IC50, lactate dehydrogenase release from MNNG cells
Experimental: as §1
as §2, with “22” for “14”, “apoptotic” for “apoptotic cell”, “human bone osteosarcoma MNNG” for “BT 474”, “19(d)” for “5(d)”

[3] = system: U251 malignant glioblastoma human cell line; assay: U251 cell growth in zymosan-activated human serum (MTT cell viability); format: cell-based; conditions: 15% human serum, 1 μg/mL zymosan, 72 h, n=4, read-out: IC50, inhibition of U251 cell growth induced by zymosan-activated human serum complement
Experimental: To obtain normal serum, blood samples from healthy individuals were treated at 37° C. for 3 h to promote clotting. Samples were then centrifuged at 3,000 g for 10 min and the clear serum was harvested.
The ATAC used comprised approximately 78% ATA, 15% AQA, and 7% AHA. In addition, ATA, AQA and AHA that had been separated by size exclusion chromatography were also tested individually, their purity having been verified by mass spectrometry.
U251 cells were grown in DMEM medium containing 10% fetal bovine serum (FBS), 100 IU/mL penicillin, and 100 μg/mL streptomycin (Invitrogen™, Carlsbad, Ca.) under humidified 5% CO2 and 95% air until confluence was reached. This usually required 3 days of incubation. Aliquots of these cells (˜2×10^5 cells) were added to 24-well plates.
Experiment 1 was designed to determine the effect of ATA, AHA, AQA and ATAC on U251 cell growth in the presence of complement activated human serum. In Experiment 1(a), U251 cells were treated with various concentrations of human serum (1, 5, 7.5, 10, 12.5, 15%) in DMEM and incubated with 1 μg/mL zymosan at 37° C. for 72 h. Control U251 cells (CON) were incubated in fresh DMEM only. As a further control U251 cells were treated with 10% human serum heated at 56° C. for 30 min to heat inactivate complement (HIS) before incubation with 1 μg/ml zymosan. In Experiment 1(b), U251 cells were treated with various concentrations of ATAC, ATA, AQA and AHA (0.1, 1, 5, 10, 30, 50 μM) in DMEM with 15% human serum and incubated with 1 μg/mL zymosan at 37 ° C. for 72 h. In both Experiments 1(a) and 1(b), following incubation, cell viability was evaluated by MTT (3-[4,5-dimethylthiazol-2-yl]-2,5 diphenyl tetrazolium bromide) assays by adding MTT to the cell cultures to reach a final concentration of 1 mg/mL. […] Plates were subsequently incubated overnight at 37° C. and optical densities at 570 nm were measured by transferring 100 μL aliquots to 96-well plates and using a plate reader with a corresponding filter.

[4] = system: human colorectal adenocarcinoma cell line LS180; assay: LS180 cell growth in zymosan-activated human serum (MTT cell viability); format: cell-based; conditions: LS180 cells, EMEM, 15% human serum, n=4, read-out: IC50, inhibition of LS180 cell growth induced by zymosan-activated human serum complement
Experimental: (§3) Experiment 1 was designed to determine the effect of ATA, AHA, AQA and ATAC on U251 cell growth in the presence of complement activated human serum. In Experiment 1(a), U251 cells were treated with various concentrations of human serum (1, 5, 7.5, 10, 12.5, 15%) in DMEM and incubated with 1 μg/mL zymosan at 37° C. for 72 h. Control U251 cells (CON) were incubated in fresh DMEM only. As a further control U251 cells were treated with 10% human serum heated at 56° C. for 30 min to heat inactivate complement (HIS) before incubation with 1 μg/ml zymosan. In Experiment 1(b), U251 cells were treated with various concentrations of ATAC, ATA, AQA and AHA (0.1, 1, 5, 10, 30, 50 μM) in DMEM with 15% human serum and incubated with 1 μg/mL zymosan at 37 ° C. for 72 h. In both Experiments 1(a) and 1(b), following incubation, cell viability was evaluated by MTT (3-[4,5-dimethylthiazol-2-yl]-2,5 diphenyl tetrazolium bromide) assays by adding MTT to the cell cultures to reach a final concentration of 1 mg/mL. Following a 1 h incubation at 37° C., the dark crystals formed were dissolved by adding a SDS/DMF extraction buffer (300 μL, 20% sodium dodecyl sulfate, 50% N,N-dimethylformamide, pH 4.7). Plates were subsequently incubated overnight at 37° C. and optical densities at 570 nm were measured by transferring 100 μL aliquots to 96-well plates and using a plate reader with a corresponding filter.
Experiment 19 was designed to determine the effect of ATA, AQA, AHA and ATAC on growth of the human colorectal adenocarcinoma LS180 cell line. The protocol was identical to that used in Experiment 17(b) except that colorectal adenocarcinoma cells were utilized and the growth medium was EMEM.

[5] = system: human colorectal cancer cell line SW 480; assay: SW 480 cell growth in zymosan-activated human serum (MTT cell viability); format: cell-based; conditions: 15% human serum, n=4, read-out: IC50, inhibition of SW 480 cell growth induced by zymosan-activated human serum complement
Experimental: as §3
Experiment 23 was designed to determine the effect of ATA, AQA, 15 AHA and ATAC on growth of the human colorectal cancer cell line SW 480. The protocol was identical to that used in Experiment 15(b) except that human colorectal cancer SW480 cells were utilized. Experiment 24 was designed to determine if apoptotic death of human carcinoma SW 480 cells was induced by ATA, AQA, AHA, and ATAC as determined by the release of lactic dehydrogenase into the cell medium. The protocol was identical to that used in Experiment 15(d) except that human carcinoma SW480 cells were used and the growth medium was DMEM.

[6] = system: human bone osteosarcoma MNNG cells; assay: MNNG cell growth in zymosan-activated human serum (MTT cell viability); format: cell-based; conditions: 15% human serum, n=4, read-out: IC50, inhibition of MNNG cell growth induced by zymosan-activated human serum complement
Experimental: as §3
Experiment 21 was designed to determine the effect of ATA, AQA, AHA and ATAC on growth of the human bone osteosarcoma MNNG cell line. The protocol was identical to that used in Experiment 19 (b) except that human bone osteosarcoma MNNG cells were utilized.

| Molecule | IC50 (BT 474 cells; Homo sapiens) | IC50 ([1]; Homo sapiens) | IC50 ([2]; Homo sapiens) | IC50 ([3]; U-251, U251 cells) | IC50 [4] | IC50 ([5]; SW480, SW 480 cells) | IC50 [6] | IC50 (BT 474 cells) | IC50 [1] | IC50 [2] | IC50 ([3]; U251 cells) | IC50 ([5]; SW 480 cells) |
| --- | --- | --- | --- | --- | --- | --- | --- | --- | --- | --- | --- | --- |
| O=C(O)C1=CC(=C(c2ccc(O)c(C(=O)O)c2)c2ccc(O)c(C(=O)O)c2)C=CC1=O [ATA, aurin tricarboxylic acid] | 4.8 µM | 4.7 µM | 6.5 µM | 3.5 µM | 4.8 µM | 7 µM | 7.2 µM | – | – | – | – | – |
| aurin hexacarboxylic acid [AHA] | – | – | – | – | 5.1 µM | – | 7.5 µM | 4.9 µM | 4.6 µM | 6.6 µM | 3.8 µM | 6.8 µM |
| aurin quadracarboxylic acid [AQA] | – | – | – | – | 5.2 µM | – | 7.4 µM | 4.7 µM | 4.6 µM | 6.4 µM | 3.7 µM | 7 µM |
